Test results as given in patent US8012929B2, “Peptides directed for diagnosis and treatment of amyloid-associated diseases” (Tel Aviv University Future Technology Development L.P., priority 2002, dated 2011).
Square brackets hold non-standard residues; d marks the D form. Peptide text beside a SMILES is read from it. Aib = CC(C)(N)C(=O)O

Key:
[1] = test system: hAPP(751) transgenic mice; conditions: mouse, in vivo, ip
Experimental: Experimental design—20 (+3 reserves) 4.5 month (±1 week) old male hAPP(751) transgenic mice were divided into 2 treatment groups, a control group—treated with vehicle and an experimental group—treated with D-Trp-Aib. Animals were treated for 120 days with 3 intraperitoneal (i.p.) injections of 1 mg per animal per day 7 of the original 20 animals died during the 4-month experimental period, 4 of them from the control group.

[2] = Membrane permeability in Caco-2 cell monolayer; assay type: in vitro ADME; conditions: human, apical to basolateral, read-out: recovery at the experimental end point
Experimental: Membrane permeability of D-Trp-Aib as studied in Caco-2 cells—The CaCo-2 system is based on the intestinal properties of the Caco-2 cells (ATCC Accession No. HTB-37), which preserved the polarity that is seen in the intestinal wall—an apical brush border that faces the intestinal lumen and a basolateral side that faces the body. After initial culturing (37° C. in an atmosphere of 5% CO2 and 100% humidity; medium: D-glucose DMEM supplemented with 1% Lglutamine, 1% nonessential amino acids, 1% sodium pyruvate, 1% penicillinstreptomycin, and 10% fetal bovine serum), cells were harvested and grown (14 days) on polycarbonate membranes, on which they formed a tight monolayer, (width of one cell, as in the intestine) allowing specific compounds to penetrate. […] D-Trp-Aib membrane permeability of the Caco-2 cell monolayer was assessed at concentrations of 0.2 mM and 1 mM, and compared to the standards propranolol (1 mM/apical buffer-see below) and ^3H-mannitol (5.26 Ci/mmole apical buffer—see below), known to pass via transcellular and paracellular routes, respectively. […] Substance samples and Propranolol standard were analyzed using HPLC. ^3H-Mannitol samples were subjected to analysis by liquid scintillation counting in a Packard TopCount NXT. […]

SMILES: CC(C)(NC(=O)[C@H](N)Cc1c[nH]c2ccccc12)C(=O)O [D-Trp-Aib] (H-[dW]-[Aib]-OH)
- long-term toxicity [1]: no long-term toxicity
- recovery at 90 min ([2]; 0.2 mM): 37.9%
- recovery at 90 min, 1 mM ([2]; 1 mM): 19.3%
